# According to US20240376057A1, “2,4-DIOXO-1,2,3,4-TETRAHYDROPYRIMIDINE DERIVATIVES AND THEIR USE IN THE TREATMENT OF TUMORS” (ISTITUTO PASTEUR ITALIA, priority 2021, published 2024):
# pIC50: −log10 of the molar value.
# Key:
# [1] = test system: Med1-MB cells; assay: Med1-MB tumor cell proliferation, Trypan Blue exclusion count; assay type: cell-based, mouse; parameters: key to Growth Inhibition (relative inhibitory activity): *** strong; ** middle; * weak; conditions: for Growth Inhibition (relative inhibitory activity): 72 h treatment
# Description: Med1-MB cells (a mouse medulloblastoma cell line kindly provided by Dr Yoon-Jae Cho, Stanford, CA USA and disclosed in Hayden Gephart et al. Journal of Neuro-Oncology (2013) volume 115, pages 161-168) were maintained in DMEM supplemented with 10% FBS and 100 units of penicillin/streptomycin.
# Med1-MB cells were cultured in Dulbecco's modified Eagle medium (DMEM) supplemented with 10% FBS, 1 mM penicillin-streptomycin and 1 mM glutamine in a humidified incubator at 37° C. and 5% CO2. […] After 72 hours, cells were trypsinized and counted by trypan blue exclusion method.
# To evaluate the effect on tumor growth of compound IPI/01.LF, and derivatives, 1×10^4 Med1-MB cells were seeded in 12-well plate and incubated overnight at 37° C. in a humidified incubator. After 24 h, cells were treated with increasing concentrations of compounds for 72 h. At the end of the experiment, cell proliferation was assayed by Trypan Blue exclusion method. IC50 values were determined by generating a dose-response curves by non-linear regression. Data are expressed as the mean±SD of three independent experiments, each performed in triplicate.
# [2] = test system: LDHA enzyme; assay: LDHA enzymatic activity assay: rate of NADH consumption after pyruvate addition, spectrophotometry at 340 nm, in Med1-MB cell supernatant; assay type: biochemical, mouse; parameters: key to LDH Inhibition (relative inhibitory activity): *** strong; ** middle; * weak; conditions: dose of 100 μM
# Description: To evaluate whether the observed anti-proliferative effect of IPI/01.LF and derivatives was a specific consequence of the inhibitory activity on the LDHA enzyme, the inventor performed enzymatic activity assays measuring the rate of NADH consumption following the addition of pyruvate by spectrophotometry at […], as previously described [Miskimins W K, Ahn H J, Kim J Y, Ryu S, Jung Y S, Choi J Y. Synergistic anti-cancer effect of phenformin and oxamate. PLoS One. 2014; 9(1):e85576.].
# 1×10^5 Med1-MB cells were harvested, suspended in 0.1M KH2PO4 (pH 7.2), 2 mM EDTA and 1 mM dithiothreitol (DTT), sonicated in 300 μL assay buffer (50 mmol/L potassium phosphate, pH 7.4), and centrifuged at 10,000 g for 10 minutes at 4° C. The supernatant was added to 50 mM potassium phosphate (pH 7.4), 2 mM pyruvate, and 20 µM NADH. Absorbance was measured over 10 minutes at 340 nm using a spectrophotometer.
# [3] = test system: Panc1 cells; assay: Panc1 pancreatic tumor cell proliferation, Trypan Blue exclusion; assay type: cell-based, human
# Excerpt: The inventor tested compound #1-IPI/01.LF on the proliferation of human pancreatic ductal adenocarcinoma (PDAC) Panc1 cells (American Tissue Cell Culture (ATCC, Manassas, VA, USA); product code: ATCC® CRL-1469™) a human tumor cell line showing a high glycolytic rate (Liu L, Gong L, Zhang Y, Li N. Glycolysis in Panc-1 human pancreatic cancer cells is inhibited by everolimus Experimental and therapeutic medicine (2013) 5: 338-342).
# PANC-1 cells were maintained in DMEM supplemented with 10% FBS and 100 units of penicillin/streptomycin. After 72 h, cell proliferation was assayed by Trypan Blue exclusion method. IC50 value was determined by generating a dose-response curves by non-linear regression. Data are expressed as the mean±SD of three independent experiments, each performed in triplicate.
# [4] = test system: Panc1 tumor xenograft; assay: Panc1 luciferase xenograft in immunodeficient nude (nu/nu) mice: caliper tumor volume, luminescence, body weight; assay type: in vivo, mouse; conditions: for tumor growth in treated mice: 20 mg/Kg in corn oil, intraperitoneally every two days, vs vehicle
# Description: To evaluate the in vivo therapeutic effects of compound IPI/01.LF studies on immunodeficient nude (nu/nu) mouse models xenografted with the human pancreatic tumor cells Panc1 were performed.
# Panc1 cells were stably transduced with 5 MOI of a lentivirus expressing the luciferase gene (pLenti CMV Puro LUC (w168-1)). The lentiviral vector was purchased from Addgene, Watertown, MA 02472 USA (plasmid #17477); Campeau E, et al A versatile viral system for expression and depletion of proteins in mammalian cells PLoS One (2009) 4(8):e6529.
# Stably transduced Panc1 cells were subcutaneously implanted in immunocompromised Balb/C nude athymic mice. When the tumors reached the volume of 200 mm^3, mice were treated with either 20 mg/kg of compound IPI/01.LF dissolved in corn oil or with corn oil (vehicle) alone and injected intraperitoneally every two days. Tumor growth was monitored with a caliper every other day. Data are expressed as the mean±SD of three independent experiments, each performed in triplicate.
# Since the grafted Panc1 tumor cells express the ectopic luciferase reporter gene, tumor luminescence was used to monitor the tumor growth. Luminescence was measured using IVIS Lumina III In Vivo Imaging System (PerkinElmer).
# Mice were intraperitoneally injected with luciferin (RediJect D-Luciferin Bioluminescent Substrate, PerkinElmer) and analyzed by photon emission (bioluminescence).
# L of luciferin (15 mg/mL stock)/gram of mouse body weight were injected in the lower left abdominal quadrant of xenografted Balb/C mice with a 25 gauge needle. After 10 minutes, animals were anesthetized with a mixture of oxygen gas and vaporized isoflurane. Once the animals were fully anesthetized, they were positioned within the animal imaging cassette for image acquisition. Data were analyzed utilizing the LivingImage software. Image acquisition was performed at the beginning (T=0) and at the end (T=17) of the experiment and body weights (g) of mice at time of sacrifice were determined.
compound,measurement,setting,value
"O=C(Nc1ccccc1)c1c[nH]c(=O)n(Cc2ccccc2F)c1=O [#1, 2,4-dioxo-N-phenyl-3-(2-fluorobenzyl)-1,2,3,4-tetrahydropyrimidine-5-carboxamide]",Growth Inhibition (relative inhibitory activity),[1],***
same,pIC50,"[1]; Mus musculus, 72 h, non-linear regression",~4.54
same,values times lower than those obtained with oxamate,[1]; vs oxamate,approximately 700 times
same,LDH Inhibition (relative inhibitory activity),[2],***
same,inhibitory effect on LDHA enzymatic activity,[2],marked inhibitory effect
same,pIC50,"[3]; Homo sapiens, PANC-1, Panc1 cells, 72 h, non-linear regression",~4.64
same,"IC50 range, cell proliferation",[3]; Panc1 cells,within the micromolar range
same,concentration times lower than oxamate for comparable ability to reduce tumor growth,"[3]; in vitro, vs oxamate",> 700 times
same,tumor growth in treated mice,[4],did not grow at all
same,tumor growth in treated mice,[4]; listed as IPI/01.LF,significantly lower
same,weight of mice,"[4]; 20 mg/Kg, T=0 to T=17",unchanged
same,tumor luminescent light signal over time,"[4]; 20 mg/Kg, T=0 vs T=17 days, IVIS Lumina III",significant regression over time
same,tumor mass smaller in treated mice compared to controls at end of experiment,"[4]; 20 mg/Kg, end of experiment",2.5 fold
same,mean volume of tumors at end of treatment compared to controls,"[4]; 20 mg/kg, end of treatment",significantly reduced
"O=C(Nc1cccc(Cl)c1)c1c[nH]c(=O)n(Cc2ccccc2)c1=O [#2, 2,4-Dioxo-3-benzyl-N-(3-chlorophenyl)-1,2,3,4-tetrahydropyrimidine-5-carboxamide]",Growth Inhibition (relative inhibitory activity),[1],*
same,LDH Inhibition (relative inhibitory activity),[2],*
"O=C(Nc1ccccc1F)c1c[nH]c(=O)n(Cc2ccc(F)cc2)c1=O [#3, 2,4-Dioxo-3-(4-fluorobenzyl)-N-(2-fluorophenyl)-1,2,3,4-tetrahydropyrimidine-5-carboxamide]",Growth Inhibition (relative inhibitory activity),[1],**
same,LDH Inhibition (relative inhibitory activity),[2],**
"O=C(Nc1ccccc1Cl)c1c[nH]c(=O)n(Cc2ccccc2)c1=O [#4, 2,4-Dioxo-3-benzyl-N-(2-chlorophenyl)-1,2,3,4-tetrahydropyrimidine-5-carboxamide]",Growth Inhibition (relative inhibitory activity),[1],***
same,LDH Inhibition (relative inhibitory activity),[2],***
"NC(=O)c1ccc(NC(=O)c2c[nH]c(=O)n(Cc3ccccc3)c2=O)cc1 [#6, 2,4-Dioxo-3-benzyl-N-(4-carboxamidophenyl)-1,2,3,4-tetrahydropyrimidine-5-carboxamide]",Growth Inhibition (relative inhibitory activity),[1],***
same,LDH Inhibition (relative inhibitory activity),[2],***
"COc1ccc(Cn2c(=O)[nH]cc(C(=O)Nc3ccccc3Cl)c2=O)cc1 [#7, 2,4-Dioxo-3-(4-methoxybenzyl)-N-(2-chlorophenyl)-1,2,3,4-tetrahydropyrimidine-5-carboxamide]",Growth Inhibition (relative inhibitory activity),[1],***
same,LDH Inhibition (relative inhibitory activity),[2],***
"NC(=O)C(=O)O [oxamate, reference compound]",concentration lowering in vitro proliferation,[1]; 72 h,> 20 mM
